These results are taken from paper PMC9746714, “Aspartate α-decarboxylase a new therapeutic target in the fight against Helicobacter pylori infection” (Frontiers in Microbiology, 2022).

In brackets after ≈: the same amount, converted by molar mass.

Test [1] addresses T1, Aspartate α-decarboxylase (ADC) (Helicobacter pylori, UniProt P56065).
T1 construct: gene panD; recombinant 6xHis-tagged ADC, 117 amino acids for ADC plus six for the His-tag (from H. pylori ATCC 43504)
Briefly: HPLC measurement of β-alanine produced from L-aspartate by purified 6xHis-tagged ADC. Format: biochemical.

Test [2] deals with T2, Helicobacter pylori ATCC 43504.
T2 construct: ATCC 43504
The experiment in a line: microbe, parasite or virus in culture. Also on record: MIC against H. pylori by agar dilution and broth microdilution, microaerophilic, visible growth. The following applies: ATCC43504, 72 h. The procedure:
(§1) The MIC of malonic acid was determined by agar dilution and broth microdilution methods, against H. pylori ATCC 43504 and H. pylori HPM001 strains. Malonic acid (Loba, India) was dissolved in distilled water to the desired concentration, sterilized by a […] syringe filter, and used within 72 h of preparation. Inocula for MIC testing were prepared by suspending colonies in saline to reach an optical density equivalent to 2.0 McFarland turbidity standard (approximately 1×10^7 to 1×10^8 CFU/mL) ([CLSI, 2015]). The culture media used in MIC determination were freshly prepared, according to the manufacturer’s instruction, and supplemented with 1% yeast extract (LabM, United Kingdom) to enhance bacterial growth ([Walsh and Moran, 1997]). MIC determination by broth microdilution method was carried out in 96-well round-bottom micro-titre plates. […] The MIC of malonic acid was determined by agar dilution and broth microdilution methods against H. pylori ATCC 43504 and H. pylori HPM001. […] No significant difference was recorded between the MIC of malonic acid against H. pylori ATCC 43504 and H. pylori HPM001 using either the agar (p = 0.8529) or the broth microdilution methods (p = 0.8784). There was also no significant difference between the mean MIC of malonic acid recorded against the tested strains by both methods (p = 0.54).

Test [3] has as its system T3, Helicobacter pylori HPM001.
T3 construct: HPM001
The experiment in a line: microbe, parasite or virus in culture. Also on record: MIC against H. pylori by agar dilution and broth microdilution, microaerophilic, visible growth. Conditions: HPM001, 72 h. The procedure:
as §1

For test [4], the system named is T4, Enterococcus faecalis ATCC 19433.
T4 construct: ATCC 19433
Briefly: microbe, parasite or virus in culture. Also on record: species or system bacterial species; broth microdilution MIC in Mueller-Hinton broth, visible growth. Conditions: Enterococcus faecalis, ATCC19433, 20 h. How it is done: (§2) Assessment of the spectrum of activity of malonic acid The spectrum of activity of malonic acid was assessed by determining malonic acid MIC against eight other pathogenic bacterial species (A. baumannii ATCC 19606, B. cenocepacia ATCC BAA-245, E. coli ATCC 25922, E. faecium ATCC 27270, E. faecalis ATCC 19433, K. pneumoniae ATCC 10031, P. aeruginosa ATCC 27856, and S. aureus ATCC 25923) using broth microdilution method, according to the CLSI guidelines ([CLSI, 2018]). Malonic acid solution was serially diluted in Muller-Hinton broth (100 μL) to get concentrations ranging from 6 to 0.19 mg/mL. The inoculum was prepared to be equivalent to 0.5 McFarland standard (containing approximately 1–2 × 10^8 CFU/mL with most species) and was further diluted 1:10 (to get a concentration of 10^7 CFU/mL). 10 μL of the diluted inoculum was transferred to each well to contain 5 × 10^5 CFU/mL. Plates were incubated at 37°C for 20 h. […] The experiment was carried out in triplicates. Malonic acid MIC was determined against other pathogenic species (A. baumannii ATCC 19606, B. cenocepacia ATCC BAA-245, E. coli ATCC 25922, E. faecium ATCC 27270, E. faecalis ATCC 19433, K. pneumoniae ATCC 10031, P. aeruginosa ATCC 27856, and S. aureus ATCC 25923) by the broth microdilution method.

Test [5] has as its system T5, Staphylococcus aureus ATCC 25923.
T5 construct: ATCC 25923
Briefly: microbe, parasite or virus in culture. Also on record: species or system bacterial species; broth microdilution MIC in Mueller-Hinton broth, visible growth. Conditions: Staphylococcus aureus, ATCC25923, 20 h. The procedure: as §2

Test [6] has as its system T6, Acinetobacter baumannii ATCC 19606.
T6 construct: ATCC 19606
Briefly: microbe, parasite or virus in culture. Set-up: species or system bacterial species; broth microdilution MIC in Mueller-Hinton broth, visible growth. The following applies: Acinetobacter baumannii, ATCC19606, 20 h. How it is done:
as §2

For test [7], the system named is T7, Enterococcus faecium ATCC 27270.
T7 construct: ATCC 27270
The experiment in a line: microbe, parasite or virus in culture. Also on record: species or system bacterial species; broth microdilution MIC in Mueller-Hinton broth, visible growth. The following applies: Enterococcus faecium, ATCC27270, 20 h. How it is done:
as §2

Test [8] concerns T8, Pseudomonas aeruginosa ATCC 27856.
T8 construct: ATCC 27856
The experiment in a line: microbe, parasite or virus in culture. Also on record: species or system bacterial species; broth microdilution MIC in Mueller-Hinton broth, visible growth. The following applies: Pseudomonas aeruginosa, ATCC27856, 20 h. The procedure:
as §2

In test [9] the test system is T9, Burkholderia cepacia ATCC BAA-245.
T9 construct: ATCC BAA-245
Briefly: microbe, parasite or virus in culture. Also on record: species or system bacterial species; broth microdilution MIC in Mueller-Hinton broth, visible growth. The following applies: Burkholderia cepacia, ATCCBAA245, 20 h. The procedure: as §2

In test [10] the test system is T10, Escherichia coli ATCC 25922.
T10 construct: ATCC 25922
Briefly: microbe, parasite or virus in culture. The following applies: Escherichia coli, ATCC25922, 20 h. Set-up: species or system bacterial species; broth microdilution MIC in Mueller-Hinton broth, visible growth. The procedure: as §2

Test [11] relates to T11, Klebsiella pneumoniae ATCC 10031.
T11 construct: ATCC 10031
Briefly: microbe, parasite or virus in culture. The following applies: Klebsiella pneumoniae, ATCC10031, 20 h. Set-up: species or system bacterial species; broth microdilution MIC in Mueller-Hinton broth, visible growth. How it is done:
as §2

T1 sequence (P56065 1-24): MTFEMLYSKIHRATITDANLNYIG
T1 sequence (P56065 25-117): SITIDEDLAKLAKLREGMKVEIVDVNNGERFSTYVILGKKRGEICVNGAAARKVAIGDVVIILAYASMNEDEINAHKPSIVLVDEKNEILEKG

For `NC(CC(=O)O)C(=O)O` [L-aspartate, 2-amino-butanedioic acid], the “HPLC measurement of β-alanine produced from L-aspartate by purified 6xHis-tagged” value in test [1] is listed as “assaying β-alanine, the product of the enzymatic action of recombinant H. pylori 6x-His-tagged ADC on aspartate”.

Turning to `O=C(O)CC(=O)O` [MA, propanedioic acid], the MIC in [2] is 625 ± 180 µg/mL (≈ 6.01 mM); in test [3], 750 µg/mL (≈ 7.21 mM); in test [4], 625 ± 180 µg/mL (≈ 6.01 mM); in test [5], 750 µg/mL (≈ 7.21 mM); in [6], 750 µg/mL (≈ 7.21 mM); in test [7], 1000 ± 350 µg/mL (≈ 9.61 mM). The MIC in [8] was 625 ± 180 µg/mL (≈ 6.01 mM); in [9], 1000 ± 350 µg/mL (≈ 9.61 mM); in test [10], 750 µg/mL (≈ 7.21 mM); in test [11] it was 1250 ± 350 µg/mL (≈ 12 mM).
